{"source": "patent US20200222474A1", "about": "“COMPOSITIONS AND METHODS FOR INCREASING PHYTOCHEMICAL BIOAVAILABLITY AND BIOACTIVITY” (North Carolina State University, priority 2017, published 2020)", "assay_type_in_all_cases": "cell-based, Lactobacillus acidophilus", "key": {"NCK2418 (ΔLBA0227)": {"tested_on": "NCK2418 (ΔLBA0227)", "assay": "Phenotypic growth analysis of deletion mutant (PTS EIIC)", "conditions": "compared with background Δupp strain", "protocol": "(§1) Phenotypic growth assays were performed using 1% (v/v) overnight cultures of L. acidophilus strains (Table 2) and other Lactobacillus species (Table 3) grown on SDM supplemented with 1% (w/v) glucose to inoculate 200 μL of SDM supplemented with 1% (w/v) of the examined carbohydrate (0.5% in the case of esculin) in 96-well microplate wells (Corning Costar, Corning, N.Y., USA) in duplicate or triplicate wells, respectively. The microplates were sealed with clear adhesive film, incubated at 37° C. in a Fluostar Optima microplate reader (BMG Labtech, Cary, N.C., USA), and the cell optical density (OD600) was monitored for 30 hours.\n(§2) Construction of gene deletion mutants. The L. acidophilus NCFM genes LBA0225 and LBA0726, both encoding P-Bgl of glycoside hydrolase family 1 (GH1) enzymes in addition to the LBA0227 and LBA0725 genes encoding an EIIC and an EIICBA components of two PTS systems, respectively, were deleted using the upp-based counterselectable gene replacement system. Briefly, in-frame deletions were constructed by amplifying 650-750 bp of the up- and downstream flanking regions of the deletion targets with two primer pairs (e.g., LBA0225A/LBA0225B and LBA0225C/LBA0225D; Table 4). The resulting purified products were joined by splicing using overlap extension PCR (SOE-PCR63) and amplified to establish the deletion alleles. The SOE-PCR products, that include flanking restriction enzyme sites, were cloned within the BamHI and SacI/EcoRI sites of the pTRK935 integration vector and transformed into E. coli EC101. The resulting recombinant plasmids (pTRK1113-6) were confirmed by DNA sequencing and electroporated into L. acidophilus NCK1910 (Table 2) that contains the pTRK669 helper plasmid, and the recovery of the single- and double-crossover recombinants was performed as previously described. Recombinants carrying the new gene deletion alleles were isolated by colony PCR using primer pairs denoted up/down (e.g., LBA0225up/LBA0225down), which anneal to the flanking regions of the amplicons. Sequence integrity and in-frame deletions were verified by DNA sequencing employing the aforementioned primer pairs and primer denoted mid (e.g., LBA0225mid). The mutations were in-frame deletions of 90-96% of the coding regions.\n(§3) To establish the functional significance of these two loci, single deletions of each PTS EII and P-Bgl gene, and a double deletion of both P-Bgl genes were constructed using the upp-based counter-selectable gene replacement system (Table 2) and the growth phenotypes of the mutant strains were analyzed (FIG. 3). […]"}, "NCK2422 (ΔLBA0725)": {"tested_on": "NCK2422 (ΔLBA0725)", "assay": "Phenotypic growth analysis of deletion mutant (PTS EIICBA)", "protocol": "as §1, §2\nTo establish the functional significance of these two loci, single deletions of each PTS EII and P-Bgl gene, and a double deletion of both P-Bgl genes were constructed using the upp-based counter-selectable gene replacement system (Table 2) and the growth phenotypes of the mutant strains were analyzed (FIG. 3). Phenotypic growth analyses of deletion mutants of EII PTS transporters (FIGS. 3A, 3C, 3E, 3G, and 3I) and phospho-β-glucosidase (FIGS. 3B, 3D, 3F, 3H, and 3J) on the β-glucosides esculin, salicin, amygdalin and the disaccharides gentiobiose and cellobiose. The background Aupp strain is shown as a grey fill graph and the growth of the mutant strains is shown as: PTS EIIC (LBA0227, pink triangle), the phospho-β-glucosidase (LBA0225, light blue triangles), the PTS EIICBA (LBA0725, yellow squares), the second phospho-β-glucosidase (LBA0726, lilac squares) and the double phospho-β-glucosidase mutant (LBA0225/LBA0726, black stars). The color scheme is consistent with that used for the gene loci in FIG. 2."}, "NCK2424 (ΔLBA0726)": {"tested_on": "NCK2424 (ΔLBA0726)", "assay": "Phenotypic growth analysis of deletion mutant (phospho-β-glucosidase)", "conditions": "compared with background Δupp strain", "protocol": "as §1\nConstruction of gene deletion mutants. The L. acidophilus NCFM genes LBA0225 and LBA0726, both encoding P-Bgl of glycoside hydrolase family 1 (GH1) enzymes in addition to the LBA0227 and LBA0725 genes encoding an EIIC and an EIICBA components of two PTS systems, respectively, were deleted using the upp-based counterselectable gene replacement system. Briefly, in-frame deletions were constructed by amplifying 650-750 bp of the up- and downstream flanking regions of the deletion targets with two primer pairs (e.g., LBA0225A/LBA0225B and LBA0225C/LBA0225D; Table 4). The resulting purified products were joined by splicing using overlap extension PCR (SOE-PCR63) and amplified to establish the deletion alleles. The SOE-PCR products, that include flanking restriction enzyme sites, were cloned within the BamHI and SacI/EcoRI sites of the pTRK935 integration vector and transformed into E. coli EC101. […]\nas §3"}}}
{"substance": "gentiobiose [reference compound]", "values": [{"measurement": "growth of the ΔLBA0227 mutant (inactive EIIC)", "setting": "NCK2418 (ΔLBA0227)", "result": "abolished"}, {"measurement": "reduction of growth on inactivation of the EIICBA (LBA0725)", "setting": "NCK2422 (ΔLBA0725)", "result": "about 50%"}, {"measurement": "growth of the ΔLBA0725 mutant (inactive PTS EIICBA)", "setting": "NCK2422 (ΔLBA0725); compared with background Δupp strain", "result": "moderately reduced"}, {"measurement": "growth of the ΔLBA0726 mutant (P-Bgl)", "setting": "NCK2424 (ΔLBA0726)", "result": "unaffected"}]}
